Where “and” joins values, the source holds several entries; their conditions need not be identical. Equal entries are not always repeated.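 96-well plates; 48 h exposure; 5 concentrations. Endpoints by linear interpolation between flanking doses. Not reached: highest tested concentration assigned. TGI marks complete inhibition of growth.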
What was measured:
Assay in all cases: NCI-60 cell line screen, 48 h
[1] = system: IGROV1 ovarian
[2] = system: HS 578T breast
[3] = system: UACC-62 melanoma
[4] = system: KM12 colon
[5] = system: NCI/ADR-RES ovarian
[6] = system: LOX IMVI melanoma
[7] = system: CAKI-1 renal
[8] = system: MALME-3M melanoma
[9] = system: SF-539 CNS
[10] = system: UO-31 renal
[11] = system: RPMI-8226 leukemia
[12] = system: COLO 205 colon
[13] = system: MDA-MB-435
[14] = system: HCT-116 colon
[15] = system: CCRF-CEM leukemia
[16] = system: HL-60(TB) leukemia
[17] = system: A549 NSCLC
[18] = system: SF-268 CNS
[19] = system: NCI-H226 lung
[20] = system: SK-MEL-28 melanoma

SMILES	TGI [1] [µM]	TGI [2] [µM]	TGI [3] [µM]	TGI [4] [µM]	TGI [5] [µM]	TGI [6] [µM]	TGI [7] [µM]	TGI [8] [µM]	TGI [9] [µM]	TGI [10] [µM]	TGI [11] [µM]	TGI [12] [µM]	TGI [13] [µM]	TGI [14] [µM]	TGI [15] [µM]	TGI [16] [µM]	TGI [17] [µM]	TGI [18] [µM]	TGI [19]	TGI [20] [µM]
CC12CCCCC1=C(F)C(F)(F)S2 (stereo not given)	> 100	> 80.7	> 100	> 100	> 100	82.6	48.9	58.6	> 100	24.4	37.7	40.2	> 86.6	58.5	22.7	15.3	> 100	> 100	> 100 µM	78.2
CC(O)c1cc2c(s1)C(=O)c1c(C(C)O)csc1C2=O (stereo not given)	0.468	0.804	0.183	1.08	0.593	1.53	1.01	0.115	0.449	0.776	0.801	2.58	0.183	1.07	0.492	0.0415	0.355	1.32	0.959 µM	0.466
COc1ccc(-c2oc3cc(OC)c(OC)c(O)c3c(=O)c2OC)cc1	56.8	72.3	84.4	> 100	> 100	> 100	> 100	> 100	> 100	> 100	> 100	> 100	> 100	> 100	> 100	> 100	> 100	98.4	> 100 µM	> 100
COc1c2c(nc3ccccc13)-c1cc(C(CC(=O)OC(C)(C)C)C(=O)OC(C)C)c(CO)c(=O)n1C2 (stereo not given)	> 100	> 100	98.3	> 100	> 100	> 100	> 100	> 100	98.4	> 89.5	> 100	> 100	> 100	> 100	> 100	> 100	> 100	> 100	> 100 µM	> 100
Cc1cccc2oc3c(c(=O)c12)CC(O)C(C)(C)O3 (stereo not given)	> 100	> 100	> 100	> 100	> 100	> 100	> 100	> 100	> 100	> 100	> 100	> 100	> 100	> 100	> 100	48.3	> 100	> 100	> 100 µM	> 100
Cc1nc2ccc(S(=O)(=O)NS(=O)(=O)c3ccc(-c4ccccc4)cc3)cc2c(=O)n1NS(=O)(=O)c1ccc(-c2ccccc2)cc1	> 100	> 100	> 100	> 100	> 100	> 100	> 100	> 100	> 100	> 100	> 100	> 100	> 100	> 100	> 100	> 100	> 100	> 100	> 100 µM	> 100
CC(Oc1ccc(Oc2cnc3ccc(Cl)cc3n2)cc1)C(=O)O (stereo not given)	> 100	> 100	> 100	> 100	> 100	> 100	> 100	> 100	> 100	> 100	> 100	> 100	> 100	> 100	> 100	> 100	> 100	> 100	> 100 µM and 33.2 µM	> 100
C[C@H]1C2Cc3cc(O)ccc3[C@@]1(C)CCN2CCc1ccc(N)cc1	66.3	> 100	> 100	34.3	63.2	28.2	> 100	34.8	31.3	> 100	> 100	> 100	32.5	31.2	69	> 100	> 100	52.6	> 100 µM	34.4
N#Cc1c(Cl)c2cccnc2n2c1nc1ccccc12	4.94	10.5	9.1	20.3	6.55	3.51	3.71	3.28	5.4	3.33	5.67	4.02	13.5	3.19	4.02	3.78	18.6	8.4	9.58 µM	9.75
O=[N+]([O-])C(/C(Cl)=C(\Cl)Br)=C(/Cl)SCc1ccccc1	13.1	50.7	16.5	30	8.62	3.95	3.78	18.7	25.5	5.73	5.42	4.86	3.79	7.11	6.25	2.18	33.5	9.76	36.7 µM	5.98
Clc1ccc(-c2cc(-c3cc4cc(Br)ccc4nc3Cl)on2)cc1	> 50	> 50	> 50	> 50	37.9	21.4	> 50	> 50	17.5	> 50	41.7	15.4	32.1	30.7	36.2	4.89	> 50	28.6	27.4 µM	29.3
CC(C)=NOC(=O)CNC(=O)C(Cc1ccccc1)NC(=O)C(C)NC(=O)OC(C)(C)C (stereo not given)	> 100	> 100	> 100	> 100	> 100	> 100	> 100	> 100	> 100	> 100	> 100	> 100	> 100	> 100	> 100	> 100	> 100	> 100	> 100 µM	> 100
Cc1ccc(-c2c(-c3ccccc3)[nH]c(C)c2C(=O)ONC(=O)c2ccccc2)cc1	3.15	5.39	22.2	26.4	18.3	4.45	5.48	24.7	8.06	3.86	29.5	25.7	5.49	7.27	> 27.1	2.02	7.65	7.31	19.1 µM	27.1
COc1cc(/C=C2\C[C@H]3[C@@H]4CCC5=CC(=O)CC[C@]5(C)[C@H]4CC[C@]3(C)C2=O)cc(OC)c1OC	> 100	> 100	> 51.4	> 37.2	> 100	> 100	> 65.2	> 100	> 100	> 100	9.7	> 60.6	> 39.4	> 40.8	> 100	7.55	> 100	> 100	> 100 µM	> 100
COc1cc(/C=N/N=C(\N)NO)cc(OC)c1OC	> 100	> 100	50.5	> 100	36.3	> 100	> 100	82.7	75.7	> 100	> 100	> 100	> 100	> 100	> 100	42.1	> 100	> 100	73.8 µM	> 100
N#CC1=C(N)N(/N=C/c2ccccc2)C(c2ccccc2)C1(C#N)C#N (stereo not given)	29.1	66.7	29.5	> 58.2	54.2	14.6	13	4.39	33.9	29.7	18.5	4.82	33.7	8.13	6.12	5.47	43.1	46	37.2 µM	9.91
C[C@@H](C[C@H]1OC(C)(C)O[C@@H]1C(C)(C)O)[C@H]1CC=C2[C@]3(C)[C@H](O)C[C@H]4C(C)(C)[C@H](O)CC[C@]4(C)[C@H]3CC[C@]21C	21.1	16.6	34	16	21.9	17.3	19.5	26.3	17.2	23.7	12.8	10.5	17.7	16	14.1	7.88	15.2	31.4	20.6 µM	18.6
COC(=O)c1c(CC(Cc2ccc3c(c2)CCCC3)C(=O)O)ccc2c1CCCC2 (stereo not given)	> 100	79.4	52.4	77.2	34.4	31.4	> 100	> 100	44.9	62.3	73.3	32.9	> 100	33.1	> 100	46.5	> 100	> 100	> 100 µM	> 100
O=C1NC(Nc2ccccc2)=N/C1=C\c1c(Cl)cccc1Cl	62.4	95	> 100	> 100	> 100	> 100	> 100	56.5	53.2	18.4	> 100	> 100	> 100	> 100	54.1	> 100	52.1	> 100	41.6 µM	> 100
O=C(c1ccccc1)N1C(=O)N(c2ccccc2)C(=Nc2ccccc2)C1=Nc1ccccc1	> 100	> 100	31.8	> 100	> 100	> 100	> 100	> 100	> 100	> 100	> 100	> 100	> 100	> 100	> 100	> 100	> 100	> 100	> 100 µM	> 100
O=C(Cn1cc(Br)c(=O)[nH]c1=O)c1ccc(-c2ccccc2)cc1	> 33.1	> 100	> 100	> 26.3	> 100	> 27.4	> 41.8	> 100	> 19.8	> 100	> 100	> 49.6	> 55.3	> 100	> 20.2	> 35.1	> 100	15.8	> 100 µM	> 19.9
CC1CN=C(Nc2cccc(F)c2)S1 (stereo not given)	> 100	> 100	> 100	> 100	> 100	> 100	> 100	> 100	> 100	> 100	> 100	> 100	> 100	> 100	> 100	> 100	> 100	> 100	> 100 µM	> 100
O=c1[nH]nc(-c2ccccc2)n1/N=C/c1cccc([N+](=O)[O-])c1	> 100	> 100	> 100	> 100	> 100	> 100	> 100	> 100	> 100	> 100	> 100	> 100	> 100	> 100	> 100	> 100	> 100	> 100	> 100 µM	> 100

Reference: PubChem BioAssay (NCI)
